Results from ChEMBL document CHEMBL4196106, “From Naproxen Repurposing to Naproxen Analogues and Their Antiviral Activity against Influenza A Virus” (J Med Chem, 2018).

Legend:
Influenza A virus = experiment: Antiviral activity against oseltamivir-resistant Influenza A virus (A/Puerto Rico/8/1934(H1N1)) infected in MDCK cells at MOI of 10^-3 assessed as decrease in viral load after 18 hrs by immunofluorescence analysis; assay type: functional, organism-based
[1] = Selectivity index, ratio of CC50 for MDCK cells to IC50 for oseltamivir-resistant Influenza A virus (A/Puerto Rico/8/1934(H1N1)) infected in MDCK cells at MOI of 10^-3 after 18 hrs; assay type: toxicity, cell-based; conditions: dog, read-out: Ratio CC50/IC50

| Compound | IC50 (Influenza A virus) [µM] | selectivity ratio at 18 h [1] |
| --- | --- | --- |
| COc1ccc2cc(-c3c(C(=O)[O-])ccc(Oc4ccc(N)cc4)c3C(=O)[O-])ccc2c1.[Na+].[Na+] | 1 | 12000 |
| COc1ccc2cc(-c3c(C(=O)[O-])cccc3C(=O)[O-])ccc2c1.[Na+].[Na+] | 8.8 | 1480 |
| COc1ccc2cc(-c3c(C(=O)O)cc(Oc4ccc(N)cc4)cc3C(=O)O)ccc2c1 | 8 | 1620 |
